Reference: patent US8987481B1, “Method for isolation of bulk anthocyanidins and other bioactives” (priority 2013, dated 2015)

Test: Storage stability of isolated anthocyanidins
Assay type: physicochemical
Protocol: The isolated anthos are stable when stored in amber bottles under argon at −20° C. […] However, when bound to cellulose, these compounds can be stabilized for a long period of time. Edible cellulose formulations that are used routinely in beverage and food industries are commercially available. Therefore, anthos isolated by the method described here can be readily stabilized with edible cellulose or pectin or other edible materials and used in beverages and foods to provide natural colors, as well as used as nutraceuticals and provide health benefits due to known antioxidant, antiproliferative and anticancer activities of anthos.

stability in solution form: highly unstable
Substance: anthocyanins
